Legend:
Type in all cases: in vivo
[1] = system: barnyardgrass (Echinochloa crus-galli); assay: Test G Pre-Emergence Protocol; conditions: Echinochloa crus-galli, pre-emergence, 312 h, evaluated after 13 days; for pest or weed control at 15.625 g/ha: 15.625 g ai/ha, read-out: Barnyard grass damage rating (100=total damage to plant; 0=no damage to plant); for pest or weed control at 62.5 g/ha: 62.5 g ai/ha, 100=total damage to plant, 0=no damage to plant, read-out: plant damage rating, Barnyardgrass; for pest or weed control at 250 g/ha: 250 g ai/ha, read-out: Barnyardgrass damage rating (100=total damage to plant; 0=no damage to plant)
In short: (§1)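 Spraying took place one day after sowing, at 15.625, 62.5 or 250 g/ha, using an acetone/water (50:50) spray solution containing 0.5% Tween 20. Plants were kept under glasshouse conditions (24/16 °C, 14 h light, 65% humidity, watered twice daily), and injury was rated 0–100 at day 13.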

corn (Zea mays) [2] = assay: Test G Pre-Emergence Protocol; conditions: Zea mays, pre-emergence, 312 h, evaluated after 13 days; for plant injury at 15.625 g/ha: 15.625 g ai/ha; for plant injury at 15.625 g/ha / plant injury at 250 g/ha: read-out: Corn damage rating (100=total damage to plant; 0=no damage to plant); for plant injury at 62.5 g/ha: 62.5 g ai/ha, 100=total damage to plant, 0=no damage to plant, read-out: plant damage rating, Corn; for plant injury at 250 g/ha: 250 g ai/ha
In short: as §1

[3] = system: giant foxtail (Setaria faberi); assay: Test G Pre-Emergence Protocol; conditions: Setaria faberi, pre-emergence, 312 h, evaluated after 13 days; for pest or weed control at 15.625 g/ha: 15.625 g ai/ha; for pest or weed control at 15.625 g/ha / pest or weed control at 250 g/ha: read-out: Foxtail, Giant damage rating (100=total damage to plant; 0=no damage to plant); for pest or weed control at 62.5 g/ha: 62.5 g ai/ha, 100=total damage to plant, 0=no damage to plant, read-out: plant damage rating, Foxtail, Giant; for pest or weed control at 250 g/ha: 250 g ai/ha
In short: as §1

[4] = system: ivy-leaved morning glory (Ipomoea hederacea); assay: Test G Pre-Emergence Protocol; conditions: Ipomoea, pre-emergence, 312 h, evaluated after 13 days; for pest or weed control at 62.5 g/ha: 62.5 g ai/ha, 100=total damage to plant, 0=no damage to plant, read-out: plant damage rating, Morningglory, Ivy-leaved; for pest or weed control at 250 g/ha: 250 g ai/ha, read-out: Morningglory, Ivy-leaved damage rating (100=total damage to plant; 0=no damage to plant)
In short: as §1

[5] = system: redroot pigweed (Amaranthus retroflexus); assay: Test G Pre-Emergence Protocol; conditions: Amaranthus retroflexus, pre-emergence, 312 h, evaluated after 13 days; for pest or weed control at 15.625 g/ha: 15.625 g ai/ha; for pest or weed control at 15.625 g/ha / pest or weed control at 250 g/ha: read-out: Pigweed, Redroot damage rating (100=total damage to plant; 0=no damage to plant); for pest or weed control at 62.5 g/ha: 62.5 g ai/ha, 100=total damage to plant, 0=no damage to plant, read-out: plant damage rating, Pigweed, Redroot; for pest or weed control at 250 g/ha: 250 g ai/ha
In short: as §1

[6] = system: velvetleaf (Abutilon theophrasti); assay: Test G Pre-Emergence Protocol; conditions: Abutilon theophrasti, pre-emergence, 312 h, evaluated after 13 days; for pest or weed control at 15.625 g/ha: 15.625 g ai/ha; for pest or weed control at 15.625 g/ha / pest or weed control at 250 g/ha: read-out: Velvetleaf damage rating (100=total damage to plant; 0=no damage to plant); for pest or weed control at 62.5 g/ha: 62.5 g ai/ha, 100=total damage to plant, 0=no damage to plant, read-out: plant damage rating, Velvetleaf; for pest or weed control at 250 g/ha: 250 g ai/ha
In short: as §1

[7] = system: barnyardgrass (Echinochloa crus-galli); assay: Test G Post-Emergence Protocol; conditions: Echinochloa crus-galli, post-emergence, 312 h; for pest or weed control at 15.625 g/ha: 15.625 g ai/ha, evaluated after 13 days (100=total damage to plant; 0=no damage to plant), read-out: Barnyardgrass damage rating; for pest or weed control at 62.5 g/ha: 62.5 g ai/ha, read-out: Barnyardgrass damage rating (100=total damage to plant; 0=no damage to plant); for pest or weed control at 62.5 g/ha / pest or weed control at 250 g/ha: evaluated after 13 days; for pest or weed control at 250 g/ha: 250 g ai/ha, read-out: damage to plant, Barnyardgrass (100=total damage to plant; 0=no damage to plant)
In short: (§2)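 Scores run 0 (no damage) to 100 (total damage) and were taken 13 days after spraying. Plants had been raised in pots for 8 days under glasshouse control (24/16 °C, 14 h photoperiod, 65% humidity) and then treated at 15.625, 62.5 or 250 g/ha.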

corn (Zea mays) [8] = assay: Test G Post-Emergence Protocol; conditions: Zea mays, post-emergence, 312 h; for plant injury at 15.625 g/ha: 15.625 g ai/ha, evaluated after 13 days (100=total damage to plant; 0=no damage to plant), read-out: Corn damage rating; for plant injury at 62.5 g/ha: 62.5 g ai/ha, read-out: Corn damage rating (100=total damage to plant; 0=no damage to plant); for plant injury at 62.5 g/ha / plant injury at 250 g/ha: evaluated after 13 days; for plant injury at 250 g/ha: 250 g ai/ha, read-out: damage to plant, Corn (100=total damage to plant; 0=no damage to plant)
In short: as §2

[9] = system: giant foxtail (Setaria faberi); assay: Test G Post-Emergence Protocol; conditions: Setaria faberi, post-emergence, 312 h; for pest or weed control at 15.625 g/ha: 15.625 g ai/ha, evaluated after 13 days (100=total damage to plant; 0=no damage to plant), read-out: Foxtail, Giant damage rating; for pest or weed control at 62.5 g/ha: 62.5 g ai/ha, read-out: Foxtail, Giant damage rating (100=total damage to plant; 0=no damage to plant); for pest or weed control at 62.5 g/ha / pest or weed control at 250 g/ha: evaluated after 13 days; for pest or weed control at 250 g/ha: 250 g ai/ha, read-out: damage to plant, Foxtail, Giant (100=total damage to plant; 0=no damage to plant)
In short: as §2

[10] = system: ivy-leaved morning glory (Ipomoea hederacea); assay: Test G Post-Emergence Protocol; conditions: Ipomoea, post-emergence, 312 h; for pest or weed control at 15.625 g/ha: 15.625 g ai/ha, evaluated after 13 days (100=total damage to plant; 0=no damage to plant), read-out: Morningglory, Ivy-leaved damage rating; for pest or weed control at 62.5 g/ha: 62.5 g ai/ha, read-out: Morningglory, Ivy-leaved damage rating (100=total damage to plant; 0=no damage to plant); for pest or weed control at 62.5 g/ha / pest or weed control at 250 g/ha: evaluated after 13 days; for pest or weed control at 250 g/ha: 250 g ai/ha, read-out: damage to plant, Morningglory, Ivy-leaved (100=total damage to plant; 0=no damage to plant)
In short: as §2

[11] = system: redroot pigweed (Amaranthus retroflexus); assay: Test G Post-Emergence Protocol; conditions: Amaranthus retroflexus, post-emergence, 312 h; for pest or weed control at 15.625 g/ha: 15.625 g ai/ha, evaluated after 13 days (100=total damage to plant; 0=no damage to plant), read-out: Pigweed, Redroot damage rating; for pest or weed control at 62.5 g/ha: 62.5 g ai/ha, read-out: Pigweed, Redroot damage rating (100=total damage to plant; 0=no damage to plant); for pest or weed control at 62.5 g/ha / pest or weed control at 250 g/ha: evaluated after 13 days; for pest or weed control at 250 g/ha: 250 g ai/ha, read-out: damage to plant, Pigweed, Redroot (100=total damage to plant; 0=no damage to plant)
In short: as §2

[12] = system: velvetleaf (Abutilon theophrasti); assay: Test G Post-Emergence Protocol; conditions: Abutilon theophrasti, post-emergence, 312 h; for pest or weed control at 15.625 g/ha: 15.625 g ai/ha, evaluated after 13 days (100=total damage to plant; 0=no damage to plant), read-out: Velvetleaf damage rating; for pest or weed control at 62.5 g/ha: 62.5 g ai/ha, read-out: Velvetleaf damage rating (100=total damage to plant; 0=no damage to plant); for pest or weed control at 62.5 g/ha / pest or weed control at 250 g/ha: evaluated after 13 days; for pest or weed control at 250 g/ha: 250 g ai/ha, read-out: damage to plant, Velvetleaf (100=total damage to plant; 0=no damage to plant)
In short: as §2

CN1C[C@@H](c2ccc(C(F)(F)F)cc2)[C@H](C(=O)Nc2cc(C(C)(C)C)[nH]n2)C1=O (racemic) [Compound 1545]
0%: pest or weed control at 15.625 g/ha [1] | pest or weed control at 62.5 g/ha [1] | pest or weed control at 250 g/ha [1] | plant injury at 15.625 g/ha (corn (Zea mays) [2]) | plant injury at 62.5 g/ha (corn (Zea mays) [2]) | plant injury at 250 g/ha (corn (Zea mays) [2]) | pest or weed control at 15.625 g/ha [3] | pest or weed control at 62.5 g/ha [3] | pest or weed control at 250 g/ha [3] | pest or weed control at 62.5 g/ha [4] | pest or weed control at 250 g/ha [4] | pest or weed control at 15.625 g/ha [5] | pest or weed control at 62.5 g/ha [5] | pest or weed control at 250 g/ha [5] | pest or weed control at 15.625 g/ha [6] | pest or weed control at 62.5 g/ha [6] | pest or weed control at 250 g/ha [6] | pest or weed control at 15.625 g/ha [7] | pest or weed control at 62.5 g/ha [7] | pest or weed control at 250 g/ha [7] | plant injury at 15.625 g/ha (corn (Zea mays) [8]) | plant injury at 62.5 g/ha (corn (Zea mays) [8]) | plant injury at 250 g/ha (corn (Zea mays) [8]) | pest or weed control at 15.625 g/ha [9] | pest or weed control at 62.5 g/ha [9] | pest or weed control at 250 g/ha [9] | pest or weed control at 15.625 g/ha [10] | pest or weed control at 62.5 g/ha [10] | pest or weed control at 250 g/ha [10] | pest or weed control at 15.625 g/ha [11] | pest or weed control at 62.5 g/ha [11] | pest or weed control at 250 g/ha [11] | pest or weed control at 15.625 g/ha [12] | pest or weed control at 62.5 g/ha [12] | pest or weed control at 250 g/ha [12]

CN1C[C@@H](c2ccc(C(F)(F)F)cc2)[C@H](C(=O)Nc2nccc(C(F)(F)F)n2)C1=O (racemic) [Compound 1547]
0%: pest or weed control at 15.625 g/ha [1] | pest or weed control at 62.5 g/ha [1] | pest or weed control at 250 g/ha [1] | plant injury at 15.625 g/ha (corn (Zea mays) [2]) | plant injury at 62.5 g/ha (corn (Zea mays) [2]) | plant injury at 250 g/ha (corn (Zea mays) [2]) | pest or weed control at 15.625 g/ha [3] | pest or weed control at 62.5 g/ha [3] | pest or weed control at 250 g/ha [3] | pest or weed control at 15.625 g/ha ([4]; 15.625 g ai/ha, read-out: Morning-glory, Ivy-leaved damage rating (100=total damage to plant; 0=no damage to plant)) | pest or weed control at 62.5 g/ha [4] | pest or weed control at 250 g/ha [4] | pest or weed control at 15.625 g/ha [5] | pest or weed control at 62.5 g/ha [5] | pest or weed control at 250 g/ha [5] | pest or weed control at 15.625 g/ha [6] | pest or weed control at 62.5 g/ha [6] | pest or weed control at 250 g/ha [6] | pest or weed control at 15.625 g/ha [7] | pest or weed control at 62.5 g/ha [7] | pest or weed control at 250 g/ha [7] | plant injury at 15.625 g/ha (corn (Zea mays) [8]) | plant injury at 62.5 g/ha (corn (Zea mays) [8]) | plant injury at 250 g/ha (corn (Zea mays) [8]) | pest or weed control at 15.625 g/ha [9] | pest or weed control at 62.5 g/ha [9] | pest or weed control at 250 g/ha [9] | pest or weed control at 15.625 g/ha [10] | pest or weed control at 62.5 g/ha [10] | pest or weed control at 250 g/ha [10] | pest or weed control at 15.625 g/ha [11] | pest or weed control at 62.5 g/ha [11] | pest or weed control at 250 g/ha [11] | pest or weed control at 15.625 g/ha [12] | pest or weed control at 62.5 g/ha [12] | pest or weed control at 250 g/ha [12]

Reference: patent US12077503B2, “Substituted cyclic amides and their use as herbicides” (FMC CORPORATION, priority 2015, dated 2024)
